Results published in patent US6087334A, “Anti-diabetic peptides” (Amylin Pharmaceuticals, Inc., priority 1998, dated 2000).
Where a SMILES comes first, the peptide text is derived from it. Bridges are numbered along the chain shown (N, C = ends). The star is where a group is joined. Pentanoyl(4-Me) = CC(C)CCC(=O)*

Columns and labels:
[1] = target: T1, C1a receptor (C1a-type calcitonin receptor) (Rattus norvegicus, UniProt P32214); test: C1a/293 competitive binding, displacement of [125I]-human calcitonin (Example C); details: HEK293 plasma membranes (C1a/293), [125I]-human calcitonin 20 pM
T1 construct: expressed in transfected cells
T1 sequence (P32214 25-479 isoform P32214-2 limits assumed): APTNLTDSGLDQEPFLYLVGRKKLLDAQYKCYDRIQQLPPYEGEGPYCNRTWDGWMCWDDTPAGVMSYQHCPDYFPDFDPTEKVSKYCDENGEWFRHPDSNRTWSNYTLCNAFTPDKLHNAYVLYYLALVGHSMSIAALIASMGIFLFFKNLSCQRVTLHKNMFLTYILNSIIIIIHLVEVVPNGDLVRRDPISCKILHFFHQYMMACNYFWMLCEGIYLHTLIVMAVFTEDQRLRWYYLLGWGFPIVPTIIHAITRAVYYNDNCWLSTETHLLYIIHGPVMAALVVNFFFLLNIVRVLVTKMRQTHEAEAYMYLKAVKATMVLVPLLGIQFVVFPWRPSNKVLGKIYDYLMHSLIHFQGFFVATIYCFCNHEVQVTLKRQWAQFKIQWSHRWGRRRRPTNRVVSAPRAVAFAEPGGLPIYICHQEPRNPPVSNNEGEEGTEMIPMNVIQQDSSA
Method: Peptide compounds of the present invention may be evaluated for binding to the C1a receptor using the procedures described in Example C. The C1a receptor is the predominant mammalian calcitonin receptor subtype. C1a pcDNA construction and transfection were carried out as previously described (Albrandt et al. 1993, FEBS Letters, 325:225-232). HEK293 cell lines showing stable expression of the rat C1a-type calcitonin receptor (C1a/293) or the human C1a-type calcitonin receptor (1154/293) were selected by G418 resistance and limiting dilution culture methods. Plasma membranes were collected from homogenized HEK293 cells and used in the receptor binding assay. Individual test peptides at concentrations spanning 6 log units starting at around 10^-6 M were examined for their ability to displace [^125 I]-human calcitonin from the plasma membrane preparation using a 96-well microtiter plate format and scintillation counting with a Wallac LKB Beta plate counter. Competitive binding curves were constructed. Non-specific binding was measured in the presence of 100 nM calcitonin. Peptide potencies (IC50 's for competitive binding) were calculated by non-linear regression using Prism™ (version 2.01, GraphPAD Software, San Diego, Calif.).
C1a/293 Competitive Binding Studies:
Compounds were evaluated for competition in binding to the C1a receptor as follows:
(§1) Reference peptides used in these studies were purchased from Bachem (Torrance, Calif.). All other chemicals were of the highest commercial grade. [^35 S]-GTPγS was purchased from NEN Life Science Products, Inc., Pittsburgh, Pa. [^125 I]-human calcitonin was purchased from Amersham Pharmacia Biotech, Inc., Piscataway, N.J.
(§2) Methods for C1a pcDNA construction and transfection have been previously described (Albrandt, et al. 1993). HEK293 cell lines stably expressing the rat C1a-type calcitonin receptor (C1a/293) or the human C1a-type calcitonin receptor (1154/293) were selected by G418 resistance and limiting dilution culture methods.
(§3) Confluent cells were detached from tissue culture flasks by incubation with 5 mM EDTA in PBS. Cells were homogenized in ice-cold 20 mM HEPES, pH 7.4 with a Polytron homogenizer. Plasma membranes were collected using three cycles of washing in fresh buffer followed by centrifugation for 15 minutes at 48,000×g. The final membrane pellet was resuspended in 20 mM HEPES buffer containing 0.2 mM phenylmethylsulfonyl fluoride (PMSF) and stored at -70° C.
Assay buffer contained 5 μg/mL bestatin, 1 μg/mL phosphoramidon, 1 mg/mL bovine serum albumin (fraction V), 1 mg/mL bacitracin, 1 mM MgCl2, and 20 mM HEPES, pH 7.4. Membranes (2-5 μg membrane protein/well), [^125 I]-human calcitonin (20 pM), and peptides were combined in 200 μL buffer in 96-well microtiter plates. After a 60 minute incubation at room temperature, well contents were harvested onto polyethyleneimine-treated GF/B glass fiber pads using a Tomtec Mach II plate harvestor (Hamden, Conn.). Dried pads were combined with scintillant and counted on a Wallac LKB Beta Plate scintillation counter (Gaithersburg, Md.). For competitive binding curves, samples were run in duplicate over a 6 log concentration range starting at 10^-6 or 10^-7 M. Non-specific binding was measured in the presence of 100 nM human calcitonin.

[2] = target: T1, C1a receptor (C1a-type calcitonin receptor); test: biochemical; details: HEK293 plasma membranes, [35S]-GTPγS 200 pM; read-out: ED50 (nM) Example B (C1a GTPγS)
Excerpt: Peptide compounds of the present invention may be evaluated for agonist activity using the procedures described in Example B. The plasma membrane preparation of a 7-transmembrane-G-protein coupled receptor (GPCR) contains not only the receptor but also the G-proteins which constitute the first step in the intracellular signal transduction process when the receptor is activated by an agonist ligand. […] Agonist activation of a GPCR is accompanied by displacement of GDP by GTP from this site. Thus, measurement of the binding of a radiolabelled ligand, namely [^35 S]-GTPγS, for this binding site constitutes a measure of agonist potency for a given ligand. For agonism at the C1a receptor, a similar membrane preparation to that described below for the C1a binding studies is used. C1a pcDNA construction and transfection were carried out as previously described (Albrandt et al. 1993, FEBS Letters, 325:225-232). HEK293 cell lines showing stable expression of the rat C1a-type calcitonin receptor (C1a/293) or the human C1a-type calcitonin receptor (1154/293) were selected by G418 resistance and limiting dilution culture methods. Plasma membranes were collected from homogenized HEK293 cells and used in the [^35 S]-GTPγS assay. Individual test peptides at concentrations spanning 6 log units starting at around […] were examined for their ability to bind [^35 S]-GTPγS. Maximum agonist-specific binding was measured in the presence of 1 μM human calcitonin, constitutive binding was measured in the presence of buffer alone. Peptide potencies (EC50 's for concentration response curves) were calculated by non-linear regression using Prism™ (version 2.01, GraphPAD Software, San Diego, Calif.).
[^35 S]-GTPγS C1a Agonist Studies
Evaluation of the agonist activity of compounds versus the C1a receptor was carried out as follows:
as §1
as §2, with “1993, FEBS Letters, 325:225-232).” for “1993).”
as §3
Assay buffer contained 1 μM GDP, 1 mM EDTA, 5 mM MgCl2, 20 mM Hepes, and 150 mM NaCl, pH 7.4. Membranes (7.5 μg membrane protein/well), [^35 S]-GTPγS (200 pM), and peptides were combined in 200 μL buffer in 96-well microtiter plates. After a 75 minute incubation at room temperature, well contents were harvested onto GF/B glass fiber pads using a Tomtec Mach II plate harvestor (Hamden, Conn.). Dried pads were combined with scintillant and counted on a Wallac LKB Beta Plate scintillation counter. For concentration response curves, samples were run in duplicate over a 6 log concentration range starting at 10^-6 M or 10^-7 M. Maximum agonist-specific binding was measured in the presence of 1 μM human calcitonin, constitutive binding was measured in the presence of buffer alone.
Peptide potencies (1C50 's for competitive binding, and EC50 's for concentration response curves) were calculated by non-linear regression using Prism (version 2.01, GraphPAD Software, San Diego, Calif.).

Structure (SMILES)	IC50 [1] [nM]	EC50 [2] [nM]
CC(C)C[C@H](NC(=O)[C@H](CCCNC(=N)N)NC(=O)[C@H](CCC(N)=O)NC(=O)[C@@H](NC(=O)[C@H](C)NC(=O)[C@@H]1CSSC[C@H](NC(=O)[C@@H](N)CCCCN)C(=O)N[C@@H](CC(N)=O)C(=O)N[C@@H](C(C)C)C(=O)N[C@@H](C)C(=O)N[C@@H]([C@@H](C)O)C(=O)N1)[C@@H](C)O)C(=O)N[C@@H](C)C(=O)N[C@@H](CC(N)=O)C(=O)N[C@@H](Cc1ccccc1)C(=O)N[C@@H](CC(C)C)C(=O)N[C@H](C(=O)N[C@@H](CCCNC(=N)N)C(=O)N[C@@H](CO)C(=O)N[C@@H](CO)C(=O)NCC(=O)N[C@@H](Cc1ccc(O)cc1)C(N)=O)C(C)C [Example 2] (H-KCNVATCATQRLANFLVRSSGY-NH2; disulfide 2-7)	0.128	2.6
CC(C)CCC(=O)N[C@@H](CC(C)C)C(=O)N[C@@H](CO)C(=O)N[C@H](C(=O)N[C@@H](C)C(=O)N[C@@H](C)C(=O)N[C@H](C(=O)N[C@@H](C)C(=O)N[C@@H](CCCNC(=N)N)C(=O)N[C@@H](CC(C)C)C(=O)N[C@@H](C)C(=O)N[C@@H](C)C(=O)N[C@@H](Cc1ccccc1)C(=O)N[C@@H](CC(C)C)C(=O)N[C@@H](C)C(=O)N[C@@H](CCCNC(=N)N)C(=O)N[C@@H](CO)C(N)=O)[C@@H](C)O)[C@@H](C)O [Example 4] ({Pentanoyl(4-Me)}-LSTAATARLAAFLARS-NH2)	0.66	0.73
CC(C)C[C@H](NC(=O)[C@H](CCCNC(=N)N)NC(=O)[C@H](C)NC(=O)[C@@H](NC(=O)[C@H](C)NC(=O)[C@@H]1CSSC[C@H](N)C(=O)N[C@@H](CC(N)=O)C(=O)N[C@@H]([C@@H](C)O)C(=O)N[C@@H](C)C(=O)N[C@@H]([C@@H](C)O)C(=O)N1)[C@@H](C)O)C(=O)N[C@@H](C)C(=O)N[C@@H](C)C(=O)N[C@@H](Cc1ccccc1)C(=O)N[C@@H](CC(C)C)C(=O)N[C@@H](C)C(=O)N[C@@H](CCCNC(=N)N)C(N)=O [Example 7] (H-CNTATCATARLAAFLAR-NH2; disulfide 1-6)	2.7	2.2
CC(C)C[C@H](NC(=O)[C@H](CCCNC(=N)N)NC(=O)[C@H](CCC(N)=O)NC(=O)[C@@H](NC(=O)[C@H](C)NC(=O)[C@@H]1CSSC[C@H](NC(=O)[C@@H](N)CCCCN)C(=O)N[C@@H](CC(N)=O)C(=O)N[C@@H]([C@@H](C)O)C(=O)N[C@@H](C)C(=O)N[C@@H]([C@@H](C)O)C(=O)N1)[C@@H](C)O)C(=O)N[C@@H](C)C(=O)N[C@@H](C)C(=O)N[C@@H](Cc1ccccc1)C(=O)N[C@@H](CC(C)C)C(=O)N[C@H](C(=O)N[C@@H](CCCNC(=N)N)C(=O)N[C@@H](CO)C(=O)N[C@@H](CO)C(=O)NCC(=O)N[C@@H](Cc1ccc(O)cc1)C(N)=O)C(C)C [Example 8] (H-KCNTATCATQRLAAFLVRSSGY-NH2; disulfide 2-7)	3.4	4.4
CC(C)C[C@H](NC(=O)[C@H](CCCNC(=N)N)NC(=O)[C@H](CCC(N)=O)NC(=O)[C@@H](NC(=O)[C@H](C)NC(=O)[C@@H]1CSSC[C@H](NC(=O)[C@@H](N)CCCCN)C(=O)N[C@@H](CC(N)=O)C(=O)N[C@@H]([C@@H](C)O)C(=O)N[C@@H](C)C(=O)N[C@@H]([C@@H](C)O)C(=O)N1)[C@@H](C)O)C(=O)N[C@@H](C)C(=O)N[C@@H](CC(N)=O)C(=O)N[C@@H](Cc1ccccc1)C(=O)N[C@@H](CC(C)C)C(=O)N[C@H](C(=O)N[C@@H](CCCNC(=N)N)C(=O)N[C@@H](CO)C(=O)NCC(=O)N[C@@H](Cc1ccc(O)cc1)C(N)=O)C(C)C [Example 9] (H-KCNTATCATQRLANFLVRSGY-NH2; disulfide 2-7)	4.1	8.6
CC(C)C[C@H](NC(=O)[C@H](CCCNC(=N)N)NC(=O)[C@H](CCC(N)=O)NC(=O)[C@@H](NC(=O)[C@H](C)NC(=O)[C@@H]1CSSC[C@H](NC(=O)[C@@H](N)CCCCN)C(=O)N[C@@H](CC(N)=O)C(=O)N[C@@H]([C@@H](C)O)C(=O)N[C@@H](C)C(=O)N[C@@H]([C@@H](C)O)C(=O)N1)[C@@H](C)O)C(=O)N[C@@H](C)C(=O)N[C@@H](CC(N)=O)C(=O)N[C@@H](Cc1ccccc1)C(=O)N[C@@H](CC(C)C)C(=O)N[C@H](C(=O)N[C@@H](CCCNC(=N)N)C(=O)N[C@@H](C)C(=O)N[C@@H](CO)C(=O)NCC(=O)N[C@@H](Cc1ccc(O)cc1)C(N)=O)C(C)C [Example 10] (H-KCNTATCATQRLANFLVRASGY-NH2; disulfide 2-7)	4.7	8
CC(C)C[C@H](NC(=O)[C@H](CCCNC(=N)N)NC(=O)[C@H](CCC(N)=O)NC(=O)[C@@H](NC(=O)[C@H](C)NC(=O)[C@@H]1CSSC[C@H](NC(=O)[C@@H](N)CCCCN)C(=O)N[C@@H](CC(N)=O)C(=O)N[C@@H]([C@@H](C)O)C(=O)N[C@@H](C)C(=O)N[C@@H]([C@@H](C)O)C(=O)N1)[C@@H](C)O)C(=O)N[C@@H](C)C(=O)N[C@@H](CC(N)=O)C(=O)N[C@@H](Cc1ccccc1)C(=O)N[C@@H](CC(C)C)C(=O)N[C@H](C(=O)N[C@@H](Cc1c[nH]cn1)C(=O)N[C@@H](CO)C(=O)N[C@@H](CO)C(=O)NCC(=O)N[C@@H](Cc1ccc(O)cc1)C(N)=O)C(C)C [Example 11] (H-KCNTATCATQRLANFLVHSSGY-NH2; disulfide 2-7)	8.3	14
